Assay results published in patent publication US20190119284A1, “ErbB Inhibitors and Uses Thereof” (The Regents of the University of California, priority 2016, published 2019).

What was measured:
DYRK1B = DYRK1B (Homo sapiens, UniProt Q9Y463); assay: Nanosyn in vitro kinase profiling: DYRK1B; type: biochemical
Method: (§1) This was confirmed by in vitro profiling against a panel of kinases, with compound 2 only showing potent inhibition of EGFR and Ab1 (Table 2).
(§2) In vitro Kinome Screen. In vitro profiling of compound 2 at 100 nM was conducted by Nanosyn.

BLK = BLK (Homo sapiens, UniProt P51451); assay: Nanosyn in vitro kinase profiling: BLK; type: biochemical
Method: as §1, §2

TRKC = TRKC (Homo sapiens, UniProt Q16288); assay: Nanosyn in vitro kinase profiling: TRKC; type: biochemical
Method: as §1, §2

ErbB3-ICD665-1323 = target: T1, ErbB3-ICD665-1323 (Homo sapiens, UniProt P21860); assay: HER3 Autophosphorylation Assay; type: biochemical; details: purified clustered HER3 intracellular domain
T1 construct: The HER3 intracellular domain (665-1323) was concentrated on vesicles; made in house
Method: HER3 Autophosphorylation Assay. ErbB3-ICD^665-1323 wild-type expression and purification was performed exactly as previously described. To monitor the change in autophosphorylation, 1 μM ErbB3-ICD^665-1323 protein was incubated with inhibitors (varied concentrations noted in the figure) and DOGS-Ni-NTA (prepared as described in Zhang et al.[4]) in 100 mM MOPS pH 7.4, containing 200 mM NaCl, divalent cations (2 mM MnCl2 plus 5 mM MgCl2), 5% glycerol, 0.1 mM DTT and 200 μM ATP for 1 hour at 25 ° C., and the reactions were stopped by adding 50 mM EDTA and SDS-PAGE gel-loading buffer for rapid qualitative comparison of autophosphorylation by SDS-PAGE and immunoblotting with anti-phosphotyrosine (pY20) and anti-(His)5.

wt HER2 or HER2 T798M = assay: HEK-293T cells transfected with wt HER2 or HER2 T798M; type: cell-based; details: HER2 T798M vs wt, 1 nM-10 μM
TYRO3 = TYRO3 (Homo sapiens, UniProt Q06418); assay: Nanosyn in vitro kinase profiling: TYRO3; type: biochemical
Method: as §1, §2

[1] = target: mutationally activated forms of EGFR (Homo sapiens, UniProt P00533, DEL746-750); assay: EGFR phosphosite signaling in NCI-H1650 cells; type: cell-based; design: endogenous in cells; host or cells: NCI-H1650 (A2); details: concentration giving near complete inhibition
SK-BR-3 cells = assay: 72 h proliferation of SK-BR-3 cells in the presence or absence of NRG; type: cell-based; details: SK-BR-3, 72 h dose response +/- NRG
Method: (§3) FIGS. 1A-1E. NRG rescues HER2 over-expressing cancer cells from HER2 inhibitors. […] FIG 1B: Same experiment as depicted in FIG. 1A, but with the inhibitor TAK-285. FIG. 1C: The ability of NRG to rescue SK-BR-3 and BT-474 cell proliferation from HER2 inhibitors is dose dependent. Cells were treated with 1 μM of the indicated inhibitor in the presence of varying concentrations of NRG, and proliferation was read out after 72 h (mean±SD, n=3). […] FIG. 1E: Cartoon schematic of the EGFR family kinase domain asymmetric dimer. The C-terminal domain of the ‘activator’ kinase (right) interacts with the N-terminal portion of the ‘receiver’ kinase (left). This interaction stabilizes the active conformation of the receiver kinase identified by the ‘in’ conformation of the receiver kinase's α-C helix and the ordered extension of the activation loop.
(§4) FIGS. 5A-5D. […] FIG. 5A: Chemical structure of compound 3 (also referred to herein as compound 178). FIG. 5B: Proliferation curves for compound 3 against the Ba/F3 cell line panel (mean±SD, n=3). […] FIG. 5D: The same assay in FIG. 2A was performed with compound 3 in SK-BR-3 cells.

[2] = test system: HER2/HER3 signaling in FaDu cells; assay: HER2/HER3 signaling in FaDu cells, 24 h; type: cell-based; details: dose response 24 h, compared with lapatinib
Description: (§5) FIGS. 20A-20B. […] FIG. 20A. […] FIG. 20B.

FaDu cells = assay: 72 h proliferation of FaDu cells; type: cell-based
Description: as §5

MST2 = MST2 (Homo sapiens, UniProt Q13188); assay: Nanosyn in vitro kinase profiling: MST2; type: biochemical; details: compound at 1 μM
JAK1 = JAK1 (Homo sapiens, UniProt P23458); assay: Nanosyn in vitro kinase profiling: JAK1; type: biochemical; details: compound at 1 μM
BT-474 cells = assay: 72 h proliferation of BT-474 cells in the presence or absence of NRG; type: cell-based; details: BT-474, 72 h dose response +/- NRG
Method: as §3, §4

NCI-H1781 cells = assay: 72 h proliferation of NCI-H1781 cells; type: cell-based; details: NCI-H1781, 72 h
[3] = test system: NRG autocrine signaling in CHL-1 cells; assay: NRG autocrine feedback signaling in CHL-1 cells (immunoblot); type: cell-based; details: CHL-1 cells pre-treated with lapatinib 24 h, washed, drug 24 h; at 1 μM
Method: Similar results were obtained in FaDu cells, which are also dependent on NRG autocrine signaling (FIGS. 20A-20B).
Immunoblotting. Cells were grown in 6 well plates and treated according to the indicated conditions at which point the media was aspirated, cells were washed with 1 mL of cold PBS, which was then aspirated and the plates were frozen at −80° C. The frozen cells were thawed on the plates in a buffer containing 50 mM Tris pH 7.5, 150 mM NaCl, 1 mM EDTA, and 1% Triton X-100 supplemented with 1× phosphatase (PhoSTOP, Roche) and 1× protease (complete-mini tablets, Roche) inhibitors. Lysates were scraped, transferred to Eppendorf tubes, and cleared by centrifugation at 20,000×g for 20 min at 4° C. The clarified lysates were transferred to chilled, clean tubes, and normalized for protein concentration by Bradford (Bio-Rad). The normalized lysates were diluted with Laemmli loading buffer, and 10 μg of total protein was run on a 4-12% gradient gel (Invitrogen), which was then transferred to […] nitrocellulose (Bio-Rad) and analyzed using the indicated primary antibodies according to the manufacturer's recommendations. Primary antibodies were detected using IRDye secondary antibodies (Li-Cor) according to the manufacturer's recommendations and scanned on an Odyssey imager (Li-Cor). Scanned images were cropped and assembled in Adobe Illustrator 6.

[4] = test system: HER2/HER3 signaling in CW-2 cells (HER3 E928G); assay: HER2/HER3 signaling in CW-2 cells +/- NRG, 1 h; type: cell-based; details: CW-2, dose response
[5] = test system: HER2/HER3 signaling in SK-BR-3 cells; assay: HER2/HER3 signaling in SK-BR-3 cells (immunoblot); type: cell-based; details: serum-starved SK-BR-3 cells; drug added 15 min before NRG
Method: Immunoblotting. Cells were grown in 6 well plates and treated according to the indicated conditions at which point the media was aspirated, cells were washed with 1 mL of cold PBS, which was then aspirated and the plates were frozen at −80° C. The frozen cells were thawed on the plates in a buffer containing 50 mM Tris pH 7.5, 150 mM NaCl, 1 mM EDTA, and 1% Triton X-100 supplemented with 1× phosphatase (PhoSTOP, Roche) and 1× protease (complete-mini tablets, Roche) inhibitors. Lysates were scraped, transferred to Eppendorf tubes, and cleared by centrifugation at 20,000×g for 20 min at 4° C. The clarified lysates were transferred to chilled, clean tubes, and normalized for protein concentration by Bradford (Bio-Rad). […] Primary antibodies were detected using IRDye secondary antibodies (Li-Cor) according to the manufacturer's recommendations and scanned on an Odyssey imager (Li-Cor).

Sequence of TYRO3 (Q06418 41-890, species assumed): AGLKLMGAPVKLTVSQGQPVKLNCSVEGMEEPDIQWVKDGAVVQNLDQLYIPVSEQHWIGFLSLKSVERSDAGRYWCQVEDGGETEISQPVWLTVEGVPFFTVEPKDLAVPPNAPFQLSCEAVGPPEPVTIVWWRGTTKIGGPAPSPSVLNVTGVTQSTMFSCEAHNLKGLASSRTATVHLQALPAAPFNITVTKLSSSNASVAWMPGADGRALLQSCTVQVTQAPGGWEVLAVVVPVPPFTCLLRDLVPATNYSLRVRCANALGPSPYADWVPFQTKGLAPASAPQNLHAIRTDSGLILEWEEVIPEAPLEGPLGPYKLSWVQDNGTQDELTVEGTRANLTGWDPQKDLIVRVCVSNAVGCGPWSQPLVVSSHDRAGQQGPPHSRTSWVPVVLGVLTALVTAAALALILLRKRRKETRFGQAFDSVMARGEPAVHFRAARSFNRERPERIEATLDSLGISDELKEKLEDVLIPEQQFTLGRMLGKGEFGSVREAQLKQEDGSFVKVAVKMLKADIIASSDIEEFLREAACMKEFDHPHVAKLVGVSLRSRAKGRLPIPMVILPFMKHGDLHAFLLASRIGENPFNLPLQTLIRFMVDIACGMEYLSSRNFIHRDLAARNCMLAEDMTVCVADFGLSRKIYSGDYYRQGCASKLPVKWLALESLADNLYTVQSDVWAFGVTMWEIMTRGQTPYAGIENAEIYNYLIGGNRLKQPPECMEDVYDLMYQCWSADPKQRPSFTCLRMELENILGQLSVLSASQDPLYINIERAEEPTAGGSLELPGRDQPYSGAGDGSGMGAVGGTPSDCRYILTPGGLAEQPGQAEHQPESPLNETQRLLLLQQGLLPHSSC
Sequence of BLK (P51451 whole entry): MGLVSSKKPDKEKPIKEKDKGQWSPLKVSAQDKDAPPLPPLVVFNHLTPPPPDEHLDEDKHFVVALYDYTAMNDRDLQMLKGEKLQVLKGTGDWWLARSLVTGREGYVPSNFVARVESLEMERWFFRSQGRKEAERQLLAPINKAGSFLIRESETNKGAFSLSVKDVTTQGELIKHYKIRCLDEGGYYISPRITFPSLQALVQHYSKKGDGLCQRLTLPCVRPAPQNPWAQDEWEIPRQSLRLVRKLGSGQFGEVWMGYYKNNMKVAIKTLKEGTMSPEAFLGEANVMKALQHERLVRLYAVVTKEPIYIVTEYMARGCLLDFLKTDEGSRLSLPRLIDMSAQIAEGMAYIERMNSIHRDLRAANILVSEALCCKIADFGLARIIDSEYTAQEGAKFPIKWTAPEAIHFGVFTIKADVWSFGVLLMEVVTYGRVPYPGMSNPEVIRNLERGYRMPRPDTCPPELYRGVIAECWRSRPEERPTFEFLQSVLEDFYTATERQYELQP
Sequence of DYRK1B (Q9Y463 whole entry, species assumed): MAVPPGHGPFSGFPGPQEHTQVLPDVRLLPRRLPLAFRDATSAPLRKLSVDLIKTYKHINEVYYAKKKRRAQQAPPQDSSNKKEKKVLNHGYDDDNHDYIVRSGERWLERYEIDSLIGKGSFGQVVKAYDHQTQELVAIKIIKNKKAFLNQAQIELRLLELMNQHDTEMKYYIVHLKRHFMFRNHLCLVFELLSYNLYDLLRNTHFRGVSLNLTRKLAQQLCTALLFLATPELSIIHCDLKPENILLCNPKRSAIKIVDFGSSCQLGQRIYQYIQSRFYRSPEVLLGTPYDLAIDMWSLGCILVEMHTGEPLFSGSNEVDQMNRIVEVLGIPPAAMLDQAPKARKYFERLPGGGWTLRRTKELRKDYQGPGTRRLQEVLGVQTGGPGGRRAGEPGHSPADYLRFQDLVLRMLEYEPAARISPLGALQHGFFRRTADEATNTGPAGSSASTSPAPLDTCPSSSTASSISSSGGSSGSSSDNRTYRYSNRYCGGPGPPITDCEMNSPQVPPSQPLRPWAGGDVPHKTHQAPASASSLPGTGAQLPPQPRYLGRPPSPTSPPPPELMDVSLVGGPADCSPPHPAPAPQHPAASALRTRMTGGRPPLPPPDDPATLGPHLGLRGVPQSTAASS
Sequence of TRKC (Q16288 32-839): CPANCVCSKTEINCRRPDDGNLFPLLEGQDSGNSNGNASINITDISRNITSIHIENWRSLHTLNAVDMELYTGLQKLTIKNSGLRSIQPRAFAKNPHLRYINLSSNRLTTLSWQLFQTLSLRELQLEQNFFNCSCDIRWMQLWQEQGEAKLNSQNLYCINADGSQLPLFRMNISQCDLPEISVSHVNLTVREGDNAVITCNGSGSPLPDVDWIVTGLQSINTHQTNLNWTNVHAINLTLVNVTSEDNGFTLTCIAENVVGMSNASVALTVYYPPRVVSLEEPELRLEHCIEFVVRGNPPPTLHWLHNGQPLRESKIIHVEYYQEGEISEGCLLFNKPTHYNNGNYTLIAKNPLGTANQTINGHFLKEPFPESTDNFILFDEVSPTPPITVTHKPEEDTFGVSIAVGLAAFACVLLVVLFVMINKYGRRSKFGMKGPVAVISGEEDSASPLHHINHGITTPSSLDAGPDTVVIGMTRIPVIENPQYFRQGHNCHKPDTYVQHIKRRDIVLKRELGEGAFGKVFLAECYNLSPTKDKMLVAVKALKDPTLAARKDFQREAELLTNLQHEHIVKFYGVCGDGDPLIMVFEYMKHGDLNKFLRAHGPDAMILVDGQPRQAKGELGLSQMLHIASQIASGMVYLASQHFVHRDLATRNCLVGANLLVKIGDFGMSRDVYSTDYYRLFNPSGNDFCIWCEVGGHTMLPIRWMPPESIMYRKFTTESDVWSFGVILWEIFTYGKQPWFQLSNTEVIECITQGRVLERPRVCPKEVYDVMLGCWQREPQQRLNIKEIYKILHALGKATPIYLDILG
T1 sequence (P21860 684-1342): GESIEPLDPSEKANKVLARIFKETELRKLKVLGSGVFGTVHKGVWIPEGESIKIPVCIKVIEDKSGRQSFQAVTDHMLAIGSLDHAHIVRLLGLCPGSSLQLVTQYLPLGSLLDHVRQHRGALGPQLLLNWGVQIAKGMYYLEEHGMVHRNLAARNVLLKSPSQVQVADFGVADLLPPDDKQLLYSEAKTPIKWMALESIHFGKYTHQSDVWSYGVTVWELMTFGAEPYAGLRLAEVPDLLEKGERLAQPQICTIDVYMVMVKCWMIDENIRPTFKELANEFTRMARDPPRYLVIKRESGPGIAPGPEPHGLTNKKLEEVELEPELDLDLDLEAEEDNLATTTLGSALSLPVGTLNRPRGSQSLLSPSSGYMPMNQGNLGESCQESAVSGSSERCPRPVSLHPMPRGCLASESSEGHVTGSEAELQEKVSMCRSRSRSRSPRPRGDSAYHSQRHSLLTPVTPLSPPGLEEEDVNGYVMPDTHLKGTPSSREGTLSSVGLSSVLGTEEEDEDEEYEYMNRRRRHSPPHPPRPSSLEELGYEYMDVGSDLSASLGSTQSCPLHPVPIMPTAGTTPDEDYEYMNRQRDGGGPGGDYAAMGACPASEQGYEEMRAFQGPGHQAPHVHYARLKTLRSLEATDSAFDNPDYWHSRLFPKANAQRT
Sequence of mutationally activated forms of EGFR (P00533 with tags, fused parts or gaps DEL746-750): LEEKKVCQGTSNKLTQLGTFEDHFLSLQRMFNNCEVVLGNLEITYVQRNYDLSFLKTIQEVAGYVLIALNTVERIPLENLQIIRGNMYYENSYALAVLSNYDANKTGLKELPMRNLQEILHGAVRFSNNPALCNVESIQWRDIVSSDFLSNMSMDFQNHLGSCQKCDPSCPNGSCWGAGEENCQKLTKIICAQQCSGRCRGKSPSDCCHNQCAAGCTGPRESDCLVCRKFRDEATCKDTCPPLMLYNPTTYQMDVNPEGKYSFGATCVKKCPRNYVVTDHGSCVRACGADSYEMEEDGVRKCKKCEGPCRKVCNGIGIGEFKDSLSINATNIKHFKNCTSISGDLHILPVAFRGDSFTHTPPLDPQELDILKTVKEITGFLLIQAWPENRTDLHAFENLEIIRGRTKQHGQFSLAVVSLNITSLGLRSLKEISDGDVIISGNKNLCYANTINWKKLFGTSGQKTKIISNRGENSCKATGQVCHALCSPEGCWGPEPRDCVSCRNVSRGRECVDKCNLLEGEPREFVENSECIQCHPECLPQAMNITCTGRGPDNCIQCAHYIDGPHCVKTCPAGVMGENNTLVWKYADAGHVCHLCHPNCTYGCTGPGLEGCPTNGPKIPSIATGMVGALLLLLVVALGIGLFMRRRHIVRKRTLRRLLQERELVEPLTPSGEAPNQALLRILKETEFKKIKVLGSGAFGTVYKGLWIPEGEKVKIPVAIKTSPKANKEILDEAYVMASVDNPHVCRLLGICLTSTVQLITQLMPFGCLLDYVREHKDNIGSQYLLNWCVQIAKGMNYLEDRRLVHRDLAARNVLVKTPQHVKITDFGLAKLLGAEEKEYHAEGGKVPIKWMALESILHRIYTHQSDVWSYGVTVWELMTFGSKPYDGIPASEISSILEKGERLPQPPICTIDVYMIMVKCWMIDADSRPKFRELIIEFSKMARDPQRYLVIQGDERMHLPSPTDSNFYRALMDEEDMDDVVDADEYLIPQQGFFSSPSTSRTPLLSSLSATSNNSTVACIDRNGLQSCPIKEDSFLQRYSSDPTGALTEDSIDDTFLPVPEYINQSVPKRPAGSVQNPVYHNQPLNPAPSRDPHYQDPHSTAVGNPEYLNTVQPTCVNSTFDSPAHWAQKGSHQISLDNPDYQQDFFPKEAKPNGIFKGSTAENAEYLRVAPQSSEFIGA

## COc1ccc(-c2ccco2)cc1Nc1ncnc2[nH]nc(-c3ccco3)c12 [compound 2, 3-(furan-2-yl)-N-(5-(furan-2-yl)-2-methoxyphenyl)-1H-pyrazolo[3,4-d]pyrimidin-4-amine]
DYRK1B; compound at 100 nM
  inhibition at 0.1 µM: 4.01%
DYRK1B; compound at 1 μM
  inhibition at 1 µM: 22.6%
BLK; compound at 100 nM
  inhibition at 0.1 µM: 59.9%
BLK; compound at 1 μM
  inhibition at 1 µM: 90.4%
TRKC; compound at 100 nM
  inhibition at 0.1 µM: 15.7%
TRKC; compound at 1 μM
  inhibition at 1 µM: 46.9%
ErbB3-ICD665-1323
  inhibition of HER3 auto-phosphorylation: able to inhibit
Wt HER2 or HER2 T798M
  effect of gatekeeper mutation on binding affinity: reduces the binding affinity
TYRO3; compound at 100 nM
  inhibition at 0.1 µM: 3.29%
TYRO3; compound at 1 μM
  inhibition at 1 µM: 5.56%

## COc1ccc(-c2ccoc2)cc1Nc1ncnc2[nH]cc(-c3cc[nH]n3)c12 [compound 3, N-(5-(furan-3-yl)-2-methoxyphenyl)-5-(1H-pyrazol-3-yl)-7H-pyrrolo[2,3-d]pyrimidin-4-amine]
[1]
  near complete inhibition of multiple phosphosites on EGFR: less than 10 nM
SK-BR-3 cells
  sensitivity of proliferation inhibition to NRG: insensitive to the presence of NRG
[2]
  inhibition of pHER3 and downstream signaling: better able to inhibit pHER3 and its downstream signaling pathways
FaDu cells
  inhibition of proliferation relative to current HER2 inhibitors: more effective than current HER2 inhibitors
MST2
  inhibition at 1 µM: 84%
JAK1
  inhibition at 1 µM: 52%
BT-474 cells
  sensitivity of proliferation inhibition to NRG: insensitive to the presence of NRG
NCI-H1781 cells
  sensitivity of cell proliferation: sensitive
[3]
  inhibition of feedback-released signaling: complete inhibition

## CS(=O)(=O)CCNCc1ccc(-c2ccc3ncnc(Nc4ccc(OCc5cccc(F)c5)c(Cl)c4)c3c2)o1 [lapatinib]
[4]
  HER2/HER3 signaling +/- NRG: NRG rescues HER2/HER3 signaling
[5]
  concentration sufficient to inhibit the entire RTK signaling pathway: greater than 100 nM
